Test results published in the supplement of paper PMC10307832.

Key:
Assay in all cases: relative viability (nuclei count vs DMSO), 5 days (fraction); higher = more cells survive
AZD5582 + Linsitinib = compound: C[C@@H](C(=O)N[C@@H](C1CCCCC1)C(=O)N2CCC[C@H]2C(=O)N[C@@H]3[C@@H](CC4=CC=CC=C34)OCC#CC#CCO[C@@H]5CC6=CC=CC=C6[C@@H]5NC(=O)[C@@H]7CCCN7C(=O)[C@H](C8CCCCC8)NC(=O)[C@H](C)NC)NC [AZD5582] + C[C@]1(O)C[C@@H](c2nc(-c3ccc4ccc(-c5ccccc5)nc4c3)c3c(N)nccn32)C1 [Linsitinib] (partner 1 µM)
Outline: (§1)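 Relative viability equals treated-well nuclei counts divided by vehicle-well nuclei counts. Counts came from 4× images of lung cancer cell lines grown in 1536-well plates for 5 days after pin-tool dosing on the day after seeding. Dosing used one drug alone or a fixed anchor-drug dose plus five library-drug doses (not always all listed) in √10 steps, and values are medians of duplicate plates.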

[1] = compound: Cn1nnc2c(C(N)=O)ncn2c1=O [Temozolomide] + CC(=O)c1c(C)c2cnc(Nc3ccc(N4CCNCC4)cn3)nc2n(C2CCCC2)c1=O [Palbociclib] (partner 0.5 µM)
Outline: as §1

AZD5582 + Bortezomib = compound: C[C@@H](C(=O)N[C@@H](C1CCCCC1)C(=O)N2CCC[C@H]2C(=O)N[C@@H]3[C@@H](CC4=CC=CC=C34)OCC#CC#CCO[C@@H]5CC6=CC=CC=C6[C@@H]5NC(=O)[C@@H]7CCCN7C(=O)[C@H](C8CCCCC8)NC(=O)[C@H](C)NC)NC [AZD5582] + CC(C)C[C@H](NC(=O)[C@H](Cc1ccccc1)NC(=O)c1cnccn1)B(O)O [Bortezomib] (partner 0.002 µM)
Outline: as §1

Temozolomide + Dasatinib = compound: Cn1nnc2c(C(N)=O)ncn2c1=O [Temozolomide] + Cc1nc(Nc2ncc(C(=O)Nc3c(C)cccc3Cl)s2)cc(N2CCN(CCO)CC2)n1 [Dasatinib] (partner 0.075 µM)
Outline: as §1

Cell Line	relative viability (AZD5582 + Linsitinib; first compound 0.001581 µM)	relative viability (AZD5582 + Linsitinib; first compound 0.005 µM)	relative viability (AZD5582 + Linsitinib; first compound 0.01581 µM)	relative viability (AZD5582 + Linsitinib; first compound 0.05 µM)	relative viability ([1]; first compound 0.2 µM)	relative viability ([1]; first compound 0.6325 µM)	relative viability ([1]; first compound 2 µM)	relative viability ([1]; first compound 6.325 µM)	relative viability ([1]; first compound 20 µM)	relative viability (AZD5582 + Bortezomib; first compound 0.001581 µM)	relative viability (AZD5582 + Bortezomib; first compound 0.005 µM)	relative viability (AZD5582 + Bortezomib; first compound 0.01581 µM)	relative viability (AZD5582 + Bortezomib; first compound 0.05 µM)	relative viability (Temozolomide + Dasatinib; first compound 0.2 µM)	relative viability (Temozolomide + Dasatinib; first compound 0.6325 µM)	relative viability (Temozolomide + Dasatinib; first compound 2 µM)	relative viability (Temozolomide + Dasatinib; first compound 6.325 µM)	relative viability (Temozolomide + Dasatinib; first compound 20 µM)
LU99A	0.575	0.622	0.525	0.752	0.447	0.42	0.472	0.387	0.388	1.24	1.32	1.09	1.46	0.589	0.489	0.6	0.524	0.548
LXF-289	0.924	0.936	0.959	0.998	0.616	0.626	0.606	0.579	0.564	0.985	1.03	0.987	1.05	0.27	0.228	0.192	0.18	0.252
NCI-H23	0.621	0.421	0.529	0.418	0.59	0.55	0.504	0.403	0.433	0.84	1.14	0.913	0.676	0.921	0.898	0.768	0.744	0.861
NCI-H322M	0.871	1.13	0.887	1.02	0.451	0.483	0.465	0.441	0.414	1.18	1.37	1.18	1.41	–	0.275	0.274	0.256	0.218
NCI-H441	0.453	0.53	0.454	0.389	0.23	0.211	0.211	0.245	0.226	0.379	0.495	0.47	0.418	0.656	0.621	0.682	0.608	0.724
NCI-H460	0.722	0.895	0.88	1.04	0.159	0.175	0.152	0.267	0.183	1.02	1.05	1.06	1.34	0.525	0.547	0.556	0.417	0.486
NCI-H520	0.808	0.948	0.967	0.923	0.215	0.225	0.228	0.278	0.243	0.702	0.826	0.432	0.757	0.24	0.212	0.207	0.185	0.235
NCI-H647	1.1	1.01	1.25	0.934	0.374	0.502	0.375	0.342	0.188	0.878	0.907	0.997	0.871	0.206	0.22	0.303	0.117	0.111
